Columns and labels:
26S proteasomes [1] = assay: Degradation of UbSic1 by purified 26S proteasomes; format: biochemical, S. cerevisiae; settings: concentrations as low as 10 μM
Experimental: (§1) FIG. 2. […] (A) Degradation of UbSic1. Purified 26S proteasomes were preincubated in the presence or absence of test compounds. UbSic1 was then added, and degradation assayed as described (6). Py mock refers to the pyridine solvent in which C23 was dissolved which was marginally inhibitory, unlike the 50% DMSO vehicle used for other test compounds. (B) Deubiquitination of UbSic1. […] UbSic1 was then added, and deubiquitination was assayed as described (6). (C) Titration curve with varying concentrations of C92 to determine half-maximal inhibition of deubiquitination. (D) C92 inhibits binding of UbSic1 to 26S proteasomes. Purified 26S proteasomes immobilized on anti-Flag beads were incubated with UbSic1 in the presence or absence of C92 as described (6). Following binding, beads were washed and analyzed by immunoblotting with anti-Sic1 polyclonal serum. (E) Binding of UbSic1 to the polyUb binding proteins Rpn10 and Rad23 is inhibited by C92. Recombinant Gst-Rpn10 and Gst-Rad23 (1 μg each) were immobilized on glutathione sepharose beads and then incubated with UbSic1 in the presence or absence of C92. Following binding, beads were washed and analyzed by immunoblotting. (F) C92 interacts with multiUb chains. Equivalent amounts (5 μg) of purified Gst, Gst-fusion protein or multiUb chains were incubated with C92 or C1 before being loaded on a 5% native polyacryamide gel. Electrophoresis was performed as described (33). (G) C92 and C59 interact specifically with K48-linked Ub on native gels. Ub (16 μM), K48-linked diUb (8 μM), or tetraUb chains (8 μM) were preincubated with a two fold-molar excess (monoUb and diUb), or equivalent amounts (tetraUb) of test compounds before being resolved on native gels as in (G). Tetra K29Ub, K48Ub, and K63Ub refer to tetraubiquitin chains wherein the ubiquitins are linked via K29, K48, or K63.
Sic1 is a Cdk inhibitor in Saccharomyces cerevisiae that must be degraded for cells to enter S-phase (9-11). […]

26S proteasomes [2] = biological target: T1, 26S proteasomes; assay: Deubiquitination of UbSic1 by epoxomicin-treated purified 26S proteasomes; format: biochemical, S. cerevisiae; settings: titration, epoxomicin-treated proteasomes
T1 construct: IC50, deubiquitination of UbSic1; other: titration, epoxomicin-treated proteasomes; other: 5 μM C92
Experimental: as §1
FIG. 5. […] Assays were performed and evaluated as summarized in the legend to FIG. 2B. The metal chelating reagent phenanthroline is designated as “P”, and “Py” refers to the pyridine solvent that is used as the solvent for C23. (B) Titration curve for C59. (C) Inhibition of binding of ubiquitin conjugates to Gst-Rpn10 by C92 and C59, but not other compounds. The experiment was performed as described for FIG. 2E.
(§2) 26S proteasomes were purified from S. cerevisiae cells expressing a Flag-tagged proteasomal subunit (PRE1) essentially as described (28).
Reactions were processed as above.

[3] = biological target: T2, K29-linked ubiquitin chains (Homo sapiens, UniProt P0CG47); assay: Native gel mobility shift of ubiquitin chains; format: binding; settings: tetraUb, equivalent amount of compound
T2 construct: tetraubiquitin chains wherein the ubiquitins are linked via K29, K48, or K63
Experimental: as §1
(§3) Selective recognition of the multiubiquitin chain by the 26S proteasome constitutes the first step in UbSic1 degradation (9). Applicants therefore assayed the binding of UbSic1 to 26S proteasomes pre-treated with C92. […] Previous work by applicants has shown that multiubiquitin chain receptors Rad23 and Rpn10 serve a redundant role in sustaining UbSic1 degradation in vitro and in vivo (14). In the absence of the ubiquitin-binding activity of Rpn10, UbSic1 is not recruited, deubiquitinated, or degraded by purified 26S proteasomes. Thus, to further establish the mechanism by which C92 inhibited binding of UbSic1 conjugates to the proteasome, applicants tested whether C92 could interfere with binding of UbSic1 to recombinant Rpn10 and Rad23. […] To distinguish whether C92 inhibited proteolysis by binding to proteasome receptor proteins or to the Ub chain on Sic 1, applicants exploited the negative charge of C92 to determine whether compound binding induced a mobility shift of the target proteins on native gels. C92 was pre-incubated with recombinant Rpn10, Rad23, or a mixture of Ub chains containing 2-7 Ub molecules. […] Remarkably, the binding of C92 and C59 to ubiquitin chains was exquisitely linkage specific. Ubiquitin molecules can be linked to each other in vivo through different internal lysines, including K29, K48, and K63(19). The K48-linked chain is the principal targeting signal in proteolysis whereas K63-linked chains are implicated in enzyme regulation; no physiological function for K29-linked chains has yet been discovered (20).

[4] = biological target: T3, K48-linked ubiquitin chains (Homo sapiens, UniProt P0CG47); assay: Native gel mobility shift of ubiquitin chains; format: binding; settings: for native gel mobility of K48-linked ubiquitin chains: diUb with two fold-molar excess, tetraUb with equivalent amount of compound
T3 construct: a mixture of Ub chains containing 2-7 Ub molecules
Experimental: as §1, §3

[5] = biological target: T4, K63-linked ubiquitin chains (Homo sapiens, UniProt P0CG47); assay: Native gel mobility shift of ubiquitin chains; format: binding; settings: tetraUb, equivalent amount of compound
T4 construct: tetraubiquitin chains wherein the ubiquitins are linked via K29, K48, or K63
Experimental: as §1, §3

26S proteasomes [6] = biological target: T5, 26S proteasomes (Saccharomyces cerevisiae, UniProt P38886+P43588); assay: 26S proteasome integrity on native gel (Coomassie Blue); format: biochemical; settings: concentrations that inhibit ubiquitin-dependent proteolysis
T5 construct: 26S proteasomes were purified from S. cerevisiae cells expressing a Flag-tagged proteasomal subunit (PRE1); made in house; host or cells: S. cerevisiae cells expressing Flag-tagged PRE1
Experimental: FIG. 6. […] (A) Purified 26S proteasomes were preincubated with test compounds before being resolved on a native gel. Following electrophoresis, the gel was stained with Coomassie Blue. […] Same as (A), except that following electrophoresis, the gel was incubated with fluorescent substrate to determine peptidase activity, which was visualized using a UV transilluminator (9). […] (C) Untreated 26S proteasomes were resolved on a native gel. Following electrophoresis, the gel was incubated with the peptidase substrate in the presence of ubistatin.
as §2

T5 sequence (P43588 whole entry): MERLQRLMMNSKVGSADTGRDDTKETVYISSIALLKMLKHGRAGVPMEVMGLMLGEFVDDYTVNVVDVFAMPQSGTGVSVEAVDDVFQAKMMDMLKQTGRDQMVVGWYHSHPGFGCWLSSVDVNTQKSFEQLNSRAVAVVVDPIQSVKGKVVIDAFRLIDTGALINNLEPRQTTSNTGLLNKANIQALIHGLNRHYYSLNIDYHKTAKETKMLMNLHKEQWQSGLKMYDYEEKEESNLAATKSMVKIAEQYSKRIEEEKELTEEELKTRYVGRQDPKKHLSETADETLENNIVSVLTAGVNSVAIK
T5 sequence (P38886 whole entry): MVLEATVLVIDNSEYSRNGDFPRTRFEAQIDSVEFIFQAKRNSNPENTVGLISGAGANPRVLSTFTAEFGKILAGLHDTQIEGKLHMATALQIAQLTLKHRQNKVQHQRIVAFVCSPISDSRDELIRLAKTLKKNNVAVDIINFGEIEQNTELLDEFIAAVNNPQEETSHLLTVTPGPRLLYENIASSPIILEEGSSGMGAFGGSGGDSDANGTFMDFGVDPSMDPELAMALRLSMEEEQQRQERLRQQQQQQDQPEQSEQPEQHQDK

SMILES | inhibitory effect on Sic1 (UbSic1) turnover (26S proteasomes [1]) | IC50 (26S proteasomes [2]) [nM] | native gel mobility of K29-linked chains [3] | native gel mobility of K48-linked ubiquitin chains [4] | native gel mobility of multiUb chains ([4]; mixture of Ub chains containing 2-7 Ub molecules) | native gel mobility of K63-linked chains [5] | effect on 26S proteasome integrity / assembly (26S proteasomes [6])
O=C(Nc1ccc(/C=C/c2ccc(NC(=O)c3cc(S(=O)(=O)O)c4cccnc4c3O)cc2S(=O)(=O)O)c(S(=O)(=O)O)c1)c1cc(S(=O)(=O)O)c2cccnc2c1O [Compound 92] | strong inhibitory effect | ~400 | little or no effect | efficiently shifted | bound Ub chains | little or no effect | without affecting
O=S(=O)(O)c1ccc2cc3c(cc2c1)NN(c1ccc(/C=C/c2ccc(N4Nc5cc6ccc(S(=O)(=O)O)cc6cc5N4)cc2S(=O)(=O)O)c(S(=O)(=O)O)c1)N3 [Compound 59] | strong inhibitory effect | 1000 | little or no effect | efficiently shifted |  | little or no effect | without affecting
CC(=O)Nc1ccc(SSc2ccc(NC(C)=O)c3cccnc23)c2ncccc12 [Compound 23] | more modest effect |  |  |  |  |  | 
